Source: ChEMBL document CHEMBL3792365, “Dioxol and dihydrodioxin analogs of 2- and 3-phenylacetonitriles as potent anti-cancer agents with nanomolar activity against a variety of human cancer cells” (2016)

Experiments:
Format in all cases: functional
[1] = test system: NCI-H322M; experiment: Growth inhibition of human NCI-H322M cells at 10 uM after 48 hrs by sulforhodamine B assay; conditions: values are per cent of control
[2] = Growth inhibition of human SF295 cells at 10 uM after 48 hrs by sulforhodamine B assay; conditions: SF-295, 48 h, values are per cent of control
[3] = Growth inhibition of human SF539 cells at 10 uM after 48 hrs by sulforhodamine B assay; conditions: SF-539, 48 h, values are per cent of control
[4] = test system: NCI-H226; experiment: Growth inhibition of human NCI-H226 cells at 10 uM after 48 hrs by sulforhodamine B assay; conditions: NCI-H226, 48 h, values are per cent of control
[5] = Growth inhibition of human NCI-ADR-RES cells at 10 uM after 48 hrs by sulforhodamine B assay; conditions: values are per cent of control
[6] = Growth inhibition of human COLO205 cells at 10 uM after 48 hrs by sulforhodamine B assay; conditions: COLO 205, 48 h, values are per cent of control
[7] = Growth inhibition of human RXF393 cells at 10 uM after 48 hrs by sulforhodamine B assay; conditions: RXF 393, 48 h, values are per cent of control
[8] = test system: SK-MEL-28; experiment: Growth inhibition of human SK-MEL-28 cells at 10 uM after 48 hrs by sulforhodamine B assay; conditions: SK-MEL-28, 48 h, values are per cent of control
[9] = Growth inhibition of human Caki1 cells at 10 uM after 48 hrs by sulforhodamine B assay; conditions: CAKI-1, 48 h, values are per cent of control
[10] = Growth inhibition of human HCT116 cells at 10 uM after 48 hrs by sulforhodamine B assay; conditions: HCT-116, 48 h, values are per cent of control
[11] = Growth inhibition of human SNB19 cells at 10 uM after 48 hrs by sulforhodamine B assay; conditions: SNB-19, 48 h, values are per cent of control
[12] = test system: SK-MEL-2; experiment: Growth inhibition of human SK-MEL-2 cells at 10 uM after 48 hrs by sulforhodamine B assay; conditions: SK-MEL-2, 48 h, values are per cent of control
[13] = test system: M14; experiment: Growth inhibition of human M14 cells at 10 uM after 48 hrs by sulforhodamine B assay; conditions: M14, 48 h, values are per cent of control
[14] = Growth inhibition of human LOXIMVI cells at 10 uM after 48 hrs by sulforhodamine B assay; conditions: LOX IMVI, values are per cent of control
[15] = test system: A549; experiment: Growth inhibition of human A549/ATCC cells at 10 uM after 48 hrs by sulforhodamine B assay; conditions: A549, 48 h, values are per cent of control
[16] = Growth inhibition of human HCT15 cells at 10 uM after 48 hrs by sulforhodamine B assay; conditions: HCT-15, 48 h, values are per cent of control
[17] = Growth inhibition of human Hs 578T cells at 10 uM after 48 hrs by sulforhodamine B assay; conditions: values are per cent of control
[18] = Growth inhibition of human HOP62 cells at 10 uM after 48 hrs by sulforhodamine B assay; conditions: HOP-62, 48 h, values are per cent of control
[19] = Growth inhibition of human HCC2998 cells at 10 uM after 48 hrs by sulforhodamine B assay; conditions: HCC 2998, 48 h, values are per cent of control
[20] = test system: U-251; experiment: Growth inhibition of human U251 cells at 10 uM after 48 hrs by sulforhodamine B assay; conditions: U-251, 48 h, values are per cent of control
[21] = Growth inhibition of human IGROV1 cells at 10 uM after 48 hrs by sulforhodamine B assay; conditions: IGROV-1, 48 h, values are per cent of control
[22] = Growth inhibition of human SF268 cells at 10 uM after 48 hrs by sulforhodamine B assay; conditions: SF-268, 48 h, values are per cent of control
[23] = test system: NCI-H460; experiment: Growth inhibition of human NCI-H460 cells at 10 uM after 48 hrs by sulforhodamine B assay; conditions: NCI-H460, 48 h, values are per cent of control
[24] = test system: ACHN; experiment: Growth inhibition of human ACHN cells at 10 uM after 48 hrs by sulforhodamine B assay; conditions: values are per cent of control
[25] = Growth inhibition of human OVCAR8 cells at 10 uM after 48 hrs by sulforhodamine B assay; conditions: OVCAR-8, 48 h, values are per cent of control
[26] = Growth inhibition of human UACC62 cells at 10 uM after 48 hrs by sulforhodamine B assay; conditions: UACC-62, 48 h, values are per cent of control
[27] = Growth inhibition of human DU145 cells at 10 uM after 48 hrs by sulforhodamine B assay; conditions: DU-145, 48 h, values are per cent of control
[28] = Growth inhibition of human OVCAR4 cells at 10 uM after 48 hrs by sulforhodamine B assay; conditions: OVCAR-4, 48 h, values are per cent of control
[29] = test system: SN12C; experiment: Growth inhibition of human SN12C cells at 10 uM after 48 hrs by sulforhodamine B assay; conditions: values are per cent of control
[30] = test system: SR; experiment: Growth inhibition of human SR cells at 10 uM after 48 hrs by sulforhodamine B assay; conditions: values are per cent of control
[31] = test system: NCI-H23; experiment: Growth inhibition of human NCI-H23 cells at 10 uM after 48 hrs by sulforhodamine B assay; conditions: NCI-H23, 48 h, values are per cent of control
[32] = test system: MDA-MB-435; experiment: Growth inhibition of human MDA-MB-435 cells at 10 uM after 48 hrs by sulforhodamine B assay; conditions: MDA-MB-435, 48 h, values are per cent of control
[33] = test system: NCI-H522; experiment: Growth inhibition of human NCI-H522 cells at 10 uM after 48 hrs by sulforhodamine B assay; conditions: NCI-H522, 48 h, values are per cent of control
[34] = test system: T47D; experiment: Growth inhibition of human T47D cells at 10 uM after 48 hrs by sulforhodamine B assay; conditions: values are per cent of control
[35] = test system: 786-0; experiment: Growth inhibition of human 786-0 cells at 10 uM after 48 hrs by sulforhodamine B assay; conditions: 786-0, 48 h, values are per cent of control
[36] = Growth inhibition of human SW620 cells at 10 uM after 48 hrs by sulforhodamine B assay; conditions: SW-620, 48 h, values are per cent of control
[37] = test system: SK-MEL-5; experiment: Growth inhibition of human SK-MEL-5 cells at 10 uM after 48 hrs by sulforhodamine B assay; conditions: SK-MEL-5, 48 h, values are per cent of control
[38] = Growth inhibition of human TK10 cells at 10 uM after 48 hrs by sulforhodamine B assay; conditions: TK-10, 48 h, values are per cent of control
[39] = test system: MDA-MB-468; experiment: Growth inhibition of human MDA-MB-468 cells at 10 uM after 48 hrs by sulforhodamine B assay; conditions: MDA-MB-468, 48 h, values are per cent of control
[40] = Growth inhibition of human BT549 cells at 10 uM after 48 hrs by sulforhodamine B assay; conditions: BT-549, 48 h, values are per cent of control

Compound | growth, % of control at 10 µM [1] [%] | growth, % of control at 10 µM [2] [%] | growth, % of control at 10 µM [3] [%] | growth, % of control at 10 µM [4] [%] | growth, % of control at 10 µM [5] [%] | growth, % of control at 10 µM [6] [%] | growth, % of control at 10 µM [7] [%] | growth, % of control at 10 µM [8] [%] | growth, % of control at 10 µM [9] [%] | growth, % of control at 10 µM [10] [%] | growth, % of control at 10 µM [11] [%] | growth, % of control at 10 µM [12] [%] | growth, % of control at 10 µM [13] [%] | growth, % of control at 10 µM [14] [%] | growth, % of control at 10 µM [15] [%] | growth, % of control at 10 µM [16] [%] | growth, % of control at 10 µM [17] [%] | growth, % of control at 10 µM [18] [%] | growth, % of control at 10 µM [19] [%] | growth, % of control at 10 µM [20] [%] | further results
N#C/C(=C\c1cccc2ccccc12)c1ccc2c(c1)OCO2 | 90.5 | 68.2 | 67.9 | 83 | 36.5 | 56 | 64.3 | 64.6 | 61.2 | 32.7 | 82.1 | 59.8 | 37.9 | 65.2 | 55.9 | 40.6 | 65.5 | 75.9 | 68.8 | 47.3 | growth, % of control at 10 µM [21]: 68.8%; growth, % of control at 10 µM [22]: 71%; growth, % of control at 10 µM [23]: 77.8%; growth, % of control at 10 µM [24]: 79.3%; growth, % of control at 10 µM [25]: 99%; growth, % of control at 10 µM [26]: 44.7%; growth, % of control at 10 µM [27]: 77.7%; growth, % of control at 10 µM [28]: 68.9%; growth, % of control at 10 µM [29]: 75.9%; growth, % of control at 10 µM [30]: 23.8%; growth, % of control at 10 µM [31]: 77.7%; growth, % of control at 10 µM [32]: -28.5%; growth, % of control at 10 µM [33]: 47.6%; growth, % of control at 10 µM [34]: 67.9%; growth, % of control at 10 µM [35]: 77.1%; growth, % of control at 10 µM [36]: 35.2%; growth, % of control at 10 µM [37]: 66.2%; growth, % of control at 10 µM [38]: 78.2%; growth, % of control at 10 µM [39]: 25.9%; growth, % of control at 10 µM [40]: 51.8%
N#C/C(=C\c1cccnc1Cl)c1ccc2c(c1)OCO2 | 97 | 110 | 99.8 | 98.9 | 101 | 112 | 98.3 | 113 | 103 | 94 | 101 | 98.9 | 94.9 | 103 | 103 | 98.8 | 129 | 103 | 107 | 95.8 | growth, % of control at 10 µM [21]: 113%; growth, % of control at 10 µM [22]: 109%; growth, % of control at 10 µM [23]: 102%; growth, % of control at 10 µM [24]: 109%; growth, % of control at 10 µM [25]: 56.2%; growth, % of control at 10 µM [26]: 85.7%; growth, % of control at 10 µM [27]: 115%; growth, % of control at 10 µM [28]: 100%; growth, % of control at 10 µM [29]: 91.7%; growth, % of control at 10 µM [30]: 92.8%; growth, % of control at 10 µM [31]: 97.2%; growth, % of control at 10 µM [32]: 97.1%; growth, % of control at 10 µM [33]: 71.7%; growth, % of control at 10 µM [34]: 93.4%; growth, % of control at 10 µM [35]: 94%; growth, % of control at 10 µM [36]: 94.8%; growth, % of control at 10 µM [37]: 92.2%; growth, % of control at 10 µM [38]: 106%; growth, % of control at 10 µM [39]: 93.7%; growth, % of control at 10 µM [40]: 88.5%
